Data published in US20230063321A1, “Methods for Treating Inflammatory Bowel Diseases with alpha4beta7 Integrin Antagonists” (Protagonist Therapeutics, Inc., priority 2020, published 2023).
Numbered stars: 1 amine (or outer) side, 2 acyl side, 3 side chain; on linkers, the order of the positions; unused ones are H or OH. Bridge positions count the residues as written; N and C are the ends. Square brackets hold non-standard residues; d marks the D form. Peptide text beside a SMILES is read from it. I, II: the chains in the order shown. ξ: configuration not given here. Phe(4-tBu) = CC(C)(C)c1ccc(C[C@H](N)C(=O)O)cc1; Diglycolyl = O=C(COCC(=O)[*:2])[*:1]; NMeR = CN[C@@H](CCCNC(=N)N)C(=O)O; β3hE = N[C@@H](CCC(=O)O)CC(=O)O; Thr(3ξ) = CC(O)[C@H](N)C(=O)O; Pen = CC(C)(S)[C@H](N)C(=O)O

Columns and labels:
α4β7 [1] = molecular target: T1, α4β7 (Homo sapiens, UniProt P13612+P26010); assay: α4β7 internalization / surface expression by flow cytometry; assay type: cell-based; conditions: human PBMCs, 100 nM, 24 h
T1 construct: endogenous in cells
Description: Blood samples from human donors were obtained from the Stanford Blood Center (Stanford, Calif.) under an RB-approved research protocol. Blood was drawn into BD Vacutainer sodium heparin blood collection tubes (BD Biosciences, Cat #362753). Peripheral blood mononuclear cells (PBMCs) were isolated from blood using a SepMate-50 tube and LymphoPrep per the manufacturer's protocol. CD4^+ T memory cells were enriched after PBMC isolation, using an EasySep kit (StemCell Technologies) per the manufacturer's protocol.
After incubation, an aliquot of cells from each reaction was stained for α4β7 expression.
After incubation, cells were washed extensively to remove excess peptide. For each reaction, an aliquot of cells was stained for α4β7 expression, while a separate aliquot was tested for adhesion to MAdCAM1.
An aliquot of cells were collected before and 24 h post peptide addition and stained for α4β7 expression. Afterwards, cells were extensively washed to remove excess peptide and incubated in fresh complete culture medium (without MnCl2) for an additional seven days. On day 1, 2, 4, 5, and 7 days after peptide washout, aliquots were stained for α4β7 expression.
Following peptide incubation, an aliquot of each reaction was stained for surface expression of α4β7 in preparation for flow cytometry. Cells were stained at 4° C. for 30 minutes, washed twice in DPBS containing 0.5% BSA (PBS/BSA), incubated with streptavidin BV421 (diluted 1:1000) at 4° C. for 30 minutes, washed twice in PBS/BSA, and then resuspended in PBS/BSA for analysis. Where relevant, a “fluorescence minus one” (FMO) sample was used as the staining control.
Samples were analyzed by flow cytometry on a BD (Franklin Lakes, N.J.) FACSVerse flow cytometer equipped with the following lasers: 405 nm (violet), 488 nm (blue), 561 nm (yellow-green), and 640 nm (red). CD4^+ T memory cells were identified as CD4^+, […], CD197^+ lymphocytes. α4β7 expression within CD4^+ T memory cells was identified based on staining with the Vedolizumab BV421 complex; staining was analyzed using BD FACSuite software, version 1.0.5. Where applicable, values were normalized to no-peptide controls and expressed as percentages to permit assessment of changes in the indicated parameter. Data were plotted and analyzed using Prism software (version 7; GraphPad, La Jolla, Calif.).

α4β7 [2] = molecular target: T2, α4β7 (Mus musculus, UniProt P26011+Q00651); assay: α4β7 receptor occupancy in whole blood and Peyer's patches after oral dosing; assay type: in vivo, C57BL/6 mice
T2 construct: mice were euthanized and whole blood/plasma and Peyer's patches were collected; from tissue; host or cells: whole blood and Peyer's patches of C57BL/6 mice
Experimental: One hour following dosing, mice were euthanized and whole blood/plasma and Peyer's patches were collected. Peyer's patches were dispersed in 1 mL RPMI medium with 2% FBS without washing step. Whole blood and single cell suspension of Peyer's patches (100 uL out of 1 mL total) were submitted for flow cytometry to determine α4β7 receptor occupancy. % RO=(1−(% positive test sample/% positive median vehicle control))*100. Plasma and Peyer's patches dispersed in single cell suspension (500 uL of 1 mL total) were also analyzed for drug exposure.

α4β7 integrin = molecular target: T3, α4β7 integrin (Homo sapiens, UniProt P13612+P26010); assay: Inhibition of MAdCAM1-mediated CD4+ T cell proliferation (plate bound anti-CD3 + MAdCAM1); assay type: cell-based; conditions: Compound A 1 uM, inactive analog 1 uM, vedolizumab 500 ng/mL; three days
T3 construct: endogenous in cells; host or cells: primary human CD4+ T cells enriched from PBMCs of healthy donors
Experimental: PBMCs were purified from healthy human donors and enrichment of CD4+ T cells was performed. […] Phenotype, distribution of T-helper (Th) subsets and % RO analyses were conducted by flow cytometry of freshly stained live samples.

[3] = molecular target: α4β7 integrin (mouse, on cells of whole blood and Peyer's patches) (mouse) (UniProt Q00651); assay: flow cytometry α4β7 receptor occupancy in Peyer's patches, mice dosed orally 3 or 30 mg/kg
α4β7 integrin (mouse, on cells of whole blood and Peyer's patches) (mouse), sequence (Q00651 41-1039, chain 1 of 2): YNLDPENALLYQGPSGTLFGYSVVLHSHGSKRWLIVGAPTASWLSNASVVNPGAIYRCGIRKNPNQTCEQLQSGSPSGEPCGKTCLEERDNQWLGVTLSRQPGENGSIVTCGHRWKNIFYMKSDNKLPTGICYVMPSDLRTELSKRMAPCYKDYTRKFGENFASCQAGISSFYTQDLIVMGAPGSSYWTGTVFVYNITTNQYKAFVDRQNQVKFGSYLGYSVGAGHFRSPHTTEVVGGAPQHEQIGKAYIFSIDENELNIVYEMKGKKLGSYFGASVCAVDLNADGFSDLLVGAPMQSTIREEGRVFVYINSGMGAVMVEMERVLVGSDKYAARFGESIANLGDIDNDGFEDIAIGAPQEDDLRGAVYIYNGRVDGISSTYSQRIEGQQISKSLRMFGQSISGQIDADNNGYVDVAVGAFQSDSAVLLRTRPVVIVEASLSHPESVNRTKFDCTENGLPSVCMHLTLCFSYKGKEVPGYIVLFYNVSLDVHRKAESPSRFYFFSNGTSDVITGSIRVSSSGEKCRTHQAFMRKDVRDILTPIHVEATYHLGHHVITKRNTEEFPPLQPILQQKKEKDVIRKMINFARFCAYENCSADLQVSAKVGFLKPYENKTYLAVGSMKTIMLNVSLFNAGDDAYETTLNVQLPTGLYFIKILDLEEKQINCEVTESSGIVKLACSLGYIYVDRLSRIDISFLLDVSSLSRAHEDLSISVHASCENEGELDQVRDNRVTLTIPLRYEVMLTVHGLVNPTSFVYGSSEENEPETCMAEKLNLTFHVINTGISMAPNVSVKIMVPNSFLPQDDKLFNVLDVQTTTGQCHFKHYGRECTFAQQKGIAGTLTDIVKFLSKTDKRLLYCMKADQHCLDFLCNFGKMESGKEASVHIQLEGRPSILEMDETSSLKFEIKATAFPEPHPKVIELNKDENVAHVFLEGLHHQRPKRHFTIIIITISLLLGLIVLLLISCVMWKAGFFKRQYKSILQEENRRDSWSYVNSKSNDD
α4β7 integrin (mouse, on cells of whole blood and Peyer's patches) (mouse), sequence (P26011 20-806, chain 2 of 2, further chain): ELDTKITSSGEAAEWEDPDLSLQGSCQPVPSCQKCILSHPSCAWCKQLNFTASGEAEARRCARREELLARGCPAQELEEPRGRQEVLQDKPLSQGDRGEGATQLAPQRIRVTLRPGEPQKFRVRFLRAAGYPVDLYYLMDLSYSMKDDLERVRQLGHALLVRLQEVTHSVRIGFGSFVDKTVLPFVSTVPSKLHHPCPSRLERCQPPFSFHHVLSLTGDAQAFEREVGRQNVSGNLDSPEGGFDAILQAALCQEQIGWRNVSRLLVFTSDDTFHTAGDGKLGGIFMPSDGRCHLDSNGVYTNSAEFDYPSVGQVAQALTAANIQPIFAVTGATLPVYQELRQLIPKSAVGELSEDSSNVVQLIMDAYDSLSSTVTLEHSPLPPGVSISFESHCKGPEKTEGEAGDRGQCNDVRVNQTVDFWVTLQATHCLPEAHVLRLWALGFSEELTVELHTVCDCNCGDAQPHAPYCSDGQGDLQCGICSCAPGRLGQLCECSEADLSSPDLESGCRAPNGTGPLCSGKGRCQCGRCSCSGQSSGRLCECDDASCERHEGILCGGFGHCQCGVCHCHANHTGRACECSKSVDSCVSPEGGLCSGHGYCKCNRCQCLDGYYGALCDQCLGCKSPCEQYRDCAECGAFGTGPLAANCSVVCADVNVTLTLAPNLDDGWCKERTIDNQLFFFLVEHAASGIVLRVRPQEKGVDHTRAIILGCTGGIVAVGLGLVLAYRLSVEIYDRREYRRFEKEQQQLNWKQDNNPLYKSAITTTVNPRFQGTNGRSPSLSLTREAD

T2 sequence (Q00651 41-1039): as the sequence (Q00651 41-1039, chain 1 of 2) above
T2 sequence (P26011 20-806): as the sequence (P26011 20-806, chain 2 of 2, further chain) above

CC(=O)N[C@@H]1C(=O)N(C)[C@@H](CCCNC(=N)N)C(=O)N[C@@H](CO)C(=O)N[C@@H](CC(=O)O)C(=O)N[C@@H](C(C)O)C(=O)N[C@@H](CC(C)C)C(=O)N[C@H](C(=O)N[C@@H](Cc2ccc(C(C)(C)C)cc2)C(=O)N[C@@H](CCC(=O)O)CC(=O)N[C@H](CCCCNC(=O)COCC(=O)NCCCC[C@@H](NC(=O)C[C@H](CCC(=O)O)NC(=O)[C@H](Cc2ccc(C(C)(C)C)cc2)NC(=O)[C@H]2NC(=O)[C@H](CC(C)C)NC(=O)[C@H](C(C)O)NC(=O)[C@H](CC(=O)O)NC(=O)[C@H](CO)NC(=O)[C@H](CCCNC(=N)N)N(C)C(=O)[C@@H](NC(C)=O)C(C)(C)SSC2(C)C)C(N)=O)C(N)=O)C(C)(C)SSC1(C)C (stereo partly drawn) [Compound B, (Ac-Pen-(N-Me-Arg)-Ser-Asp-Thr-Leu-Pen-(Phe(4-tBu))-(β-homo-Glu)-(D-Lys)-NH2)2 (SEQ ID NO. 6) with linker=DIG (diglycolic acid)] (I: Ac-[Pen][NMeR]SD[Thr(3ξ)]L[Pen][Phe(4-tBu)][β3hE][dK]-NH2 / II: Ac-[Pen][NMeR]SD[Thr(3ξ)]L[Pen][Phe(4-tBu)][β3hE][dK]-NH2; disulfide I:1-I:7, II:1-II:7; linker I:10-II:10 via Diglycolyl)
internalization of α4β7 (α4β7 [1]): caused internalization of α4β7
receptor occupancy in Peyer's patches (α4β7 [2]; 3 and 30 mg/kg PO, 1 h post dose, some animals): 100%
receptor occupancy in whole blood and Peyer's patches, 30 mg/kg vs 3 mg/kg dose group (α4β7 [2]; PO): comparable
receptor occupancy in Peyer's patches compared to whole blood (α4β7 [2]; both dose groups (3 and 30 mg/kg PO)): significantly higher

vedolizumab: intravenously administered humanized IgG monoclonal antibody directed against α4β7 [reference compound]
inhibition of MAdCAM1-mediated proliferation of CD4+ T-cells (α4β7 integrin): level of inhibition was similar to inhibition by vedolizumab

B1: Compound B (peptide)
peptide: Ac-[Pen][NMeR]SDTL[Pen][Phe(4-tBu)][β3hE][dK]-NH2
modifications: disulfide 1-7; also: homodimer linked through D-Lys residues by diglycolic acid (DIG)
receptor occupancy (%) [3]: 100%
